From paper PMC10873978, “Novel tetrahydroisoquinolines as DHFR and CDK2 inhibitors: synthesis, characterization, anticancer activity and antioxidant properties” (BMC Chemistry, 2024)
Where “and” joins values, the source holds several entries; their conditions need not be identical. Identical values can stand only once. Like-named read-outs stand apart in the source and are kept apart here.

Experiments:
A549 cell line = experiment: In vitro cytotoxic activity, MTT method, A549
In short: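 MTT assay: cells seeded at 10^5 cells/mL, grown 24 h at 37 °C to a monolayer, then exposed to serial tetrahydroisoquinoline concentrations at 37 °C. MTT (5 mg/mL stock) added for 1–5 h; OD read at 560 nm minus 620 nm background. Doxorubicin as positive control.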

[1] = Cytotoxicity on normal cell line WI-38; format: cell-based, human; conditions: human, WI-38 cells (normal fetal lung fibroblasts)
WI-38 cell line = experiment: Cytotoxicity on normal cell line WI-38; format: cell-based, human; conditions: for IC50: read-out: Toxicity on WI38 IC50 ± SD
MCF7 cells = experiment: Cell cycle analysis (propidium iodide flow cytometry), MCF7; format: cell-based, human
Procedure: Then centrifuged the cells and washed twice with ice-cold PBS, and incubated for 20 min at 4 °C. A cell cycle assay was used to assess the cell cycle (Propidium Iodide Flow Cytometry Kit [ab13941]. Then perform statistical analysis for the result by the Cell quest software on the cell fractions in sub-G0/G1, S, and G2/M phases.

MCF7 cell line = experiment: Annexin-V FITC/PI apoptosis assay, MCF7; format: cell-based, human; conditions: MCF7, compound at IC50, 24 h
Procedure: (www.biovision.com). […] These stained cells were measured using flow cytometry with an excitation wavelength of 488 nm and an emission wavelength of 530 nm. The results were then analyzed with the Cell quest software.
To further investigate whether the anti-proliferative activity for compound 7e or 8d is harmonious with the apoptosis induction within A549 or MCF7 cells pointed out by the increased cell population in G2/M phase in 7e-treated A549 cells and S phase in 8d-treated MCF7 cells, respectively, and AnnexinV-FITC/PI dual staining analysis was used for the apoptosis assay (Fig. 3).

Eef2 kinase = Eef2 kinase (Homo sapiens, UniProt O00418); experiment: Eef2 kinase inhibition; format: biochemical
IKB kinase B = target: T1, IKB kinase B (Homo sapiens, UniProt O14920); experiment: IKB kinase inhibition; format: biochemical; conditions: for %inh: IκB
T1 sequence (O14920 1-756): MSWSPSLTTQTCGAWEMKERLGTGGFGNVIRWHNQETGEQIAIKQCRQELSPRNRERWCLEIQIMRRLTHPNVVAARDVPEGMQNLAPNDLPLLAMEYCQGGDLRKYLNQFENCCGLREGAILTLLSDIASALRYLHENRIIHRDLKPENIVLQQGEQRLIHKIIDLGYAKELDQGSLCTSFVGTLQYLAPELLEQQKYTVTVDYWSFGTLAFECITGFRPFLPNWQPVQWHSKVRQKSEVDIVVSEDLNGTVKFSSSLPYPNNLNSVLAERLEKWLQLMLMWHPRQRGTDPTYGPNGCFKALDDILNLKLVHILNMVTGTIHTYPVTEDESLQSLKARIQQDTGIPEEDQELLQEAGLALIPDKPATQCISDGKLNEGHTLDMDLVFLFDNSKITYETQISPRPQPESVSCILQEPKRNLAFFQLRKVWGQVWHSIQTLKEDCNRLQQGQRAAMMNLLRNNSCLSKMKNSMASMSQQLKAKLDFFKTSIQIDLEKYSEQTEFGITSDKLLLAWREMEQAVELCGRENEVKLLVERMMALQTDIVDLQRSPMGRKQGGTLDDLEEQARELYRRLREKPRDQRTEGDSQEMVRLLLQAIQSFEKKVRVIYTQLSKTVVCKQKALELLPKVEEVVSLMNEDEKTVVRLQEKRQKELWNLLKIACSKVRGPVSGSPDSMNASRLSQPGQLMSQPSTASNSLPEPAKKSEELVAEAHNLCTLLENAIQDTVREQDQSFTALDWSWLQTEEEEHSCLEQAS

[2] = MCF7 cells, compound at IC50, 48 h

%inh (Eef2 kinase; Eef2, conc 0.01 (log -2)): 16.5%
%inh (Eef2 kinase; Eef2, conc 0.1 (log -1)): 32.8%
%inh (Eef2 kinase; Eef2, conc 1 (log 0)): 48.2%
%inh (Eef2 kinase; Eef2, conc 10 (log 1)): 76.5%
%inh (Eef2 kinase; Eef2, conc 100 (log 2)): 91.7%
IC50 (Eef2 kinase; read-out: Eef2 kinase (IC50 ± SD)): 689 ± 36 nM
%inh (IKB kinase B; conc 0.01 (log -2)): 21.8%
%inh (IKB kinase B; conc 0.1 (log -1)): 42.3%
%inh (IKB kinase B; conc 1 (log 0)): 63.9%
%inh (IKB kinase B; conc 10 (log 1)): 86.4%
%inh (IKB kinase B; conc 100 (log 2)): 93.7%
IC50 (IKB kinase B; read-out: IKB kinase B (IC50 ± SD)): 240 ± 13 nM
Compound: CC(=O)c1ccc(NC(=O)c2sc3nc(C)c4c(c3c2N)CC(C)(O)C(C(C)=O)C4c2ccc(N(C)C)cc2)cc1 (stereo not drawn) [Compound 8d, 7-Acetyl-N-(4-acetylphenyl)-1-amino-5,8-dimethyl-8-hydroxy-6-(4-N,N-dimethylaminophenyl)-6,7,8,9-tetrahydrothieno[2,3-c]isoquinoline-2-carboxamide]
Toxicity % (A549 cell line; A549, Conc. 0.04875 µMol): 13.49%
Toxicity % (A549 cell line; A549, Conc. 0.0975 µMol): 15.39%
Toxicity % (A549 cell line; A549, Conc. 0.195 µMol): 19.17%
Viability % (A549 cell line; A549, Conc. 0.195 µMol): 80.83%
Toxicity % (A549 cell line; A549, Conc. 0.391 µMol): 43.87%
Viability % (A549 cell line; A549, Conc. 0.391 µMol): 56.13%
Toxicity % (A549 cell line; A549, Conc. 0.781 µMol): 53.45%
Viability % (A549 cell line; A549, Conc. 0.781 µMol): 46.55%
Toxicity % (A549 cell line; A549, Conc. 1.562 µMol): 68.4%
Viability % (A549 cell line; A549, Conc. 1.562 µMol): 31.6%
Toxicity % (A549 cell line; A549, Conc. 3.125 µMol): 82.68%
Viability % (A549 cell line; A549, Conc. 3.125 µMol): 17.32%
Toxicity % (A549 cell line; A549, Conc. 6.25 µMol): 88.4%
Viability % (A549 cell line; A549, Conc. 6.25 µMol): 11.6%
Toxicity % (A549 cell line; A549, Conc. 12.5 µMol): 96.41%
Viability % (A549 cell line; A549, Conc. 12.5 µMol): 3.59%
Toxicity % (A549 cell line; A549, Conc. 25 µMol): 96.65%
Viability % (A549 cell line; A549, Conc. 25 µMol): 3.353%
IC50 (A549 cell line; Homo sapiens, read-out: IC50 ± SD): 515 ± 2 nM
viability at 3.125 µM ([1]; WI38): 86.3%
viability at 1.55 µM ([1]; WI38, 1.55uM (log conc. 0.19), read-out: % viability): 96.7%
viability at 6.25 µM ([1]; WI38, 6.25uM (log conc. 0.8), read-out: % viability): 74%
viability at 12.5 µM ([1]; WI38, 12.5uM (log conc. 1.1), read-out: % viability): 62.8%
viability at 25 µM ([1]; WI38, 25uM (log conc. 1.4), read-out: % viability): 46.9%
IC50 (WI-38 cell line; Homo sapiens, WI-38, normal human fetal lung fibroblast WI-38): 23300 nM
Selectivity index (SI) (WI-38 cell line; IC50 in WI-38 / IC50 in A549): 45 and 45.24
% viability (WI-38 cell line; WI38, 6.25uM (log conc. 0.8), 6.25 µM): 73.9744%
% viability (WI-38 cell line; WI38, 25uM (log conc. 1.4), 25 µM): 46.8729%
IC50 (WI-38 cell line; normal human fetal lung fibroblast WI-38): 23300 ± 930 nM
phase of cell cycle arrest (MCF7 cells; MCF7 cell line): S phase
DNA content %G0-G1 (MCF7 cells; [2]): 52.03%
DNA content %G2/M (MCF7 cells; [2]): 10.05%
DNA content %S (MCF7 cells; [2]): 37.92%
early apoptotic population (MCF7 cell line): 22.38%
late apoptotic population (MCF7 cell line): 26.96%
population of necrotic cells (MCF7 cell line): 5.04%
